Laboratory results reported in patent US8877799B2, “Inorganic salt complexes of vildagliptin” (Egis Gyogyszergynar Nyilvanosan Muekoedoe Reszvenytarsasag, priority 2009, dated 2014).

Experiments:
[1] = in water, after three days; pages 44 to 45 of WO 2007019255; cited from earlier work
compressibility = format: physicochemical

Molecule | active ingredient detectable [1] [%] | compressibility compared with vildagliptin base (compressibility)
N#C[C@@H]1CCCN1C(=O)CNC12CC3CC(CC(O)(C3)C1)C2 [vildagliptin base, 1-[2-(3-hydroxyadamant-1-yl-amino)acetyl]pyrrolidin-(2S)-carbonitrile] | 7.5 | 
Vildagliptin Calcium(II)-Chloride Trihydrate Complex (1:1:3) |  | compressed significantly more preferably than the vildagliptin base
